Values after ≈ are worked out from the molar mass of the structure shown. One block for each molecule: values may come before it. Starred links: 1 amine or outer side, 2 acyl side, 3 side chain; linkers in the order of their positions; H or OH if unused. Non-standard residues stand in square brackets, D forms with d. Residues, ends and D or L forms follow the SMILES beside them. Groups on a side chain read outwards from the residue. *: point of attachment. γGlu = O=C(O)[C@H](CCC(=O)[*:2])N[*:1]; αMeF = C[C@](N)(Cc1ccccc1)C(=O)O; αMeK = C[C@](N)(CCCCN)C(=O)O; Lauroyl = CCCCCCCCCCCC(=O)*; αMeS = C[C@](N)(CO)C(=O)O; AEEA = NCCOCCOCC(=O)O; Aib = CC(C)(N)C(=O)O
Columns and labels:
[1] = Canine study, MEDI7219 enterically coated tablets with or without Tris base, fresh or stressed (Example 19, Table 26); type: in vivo; conditions: beagle, dog, plasma, po, Beagle dogs
Description: The objective was to study influence of MEDI7219 (SEQ ID NO:2) enterically coated tablet formulation composition with or without Tris base on bioperformance Study design and outcomes are provided in Table 26.

[2] = in vivo; conditions: beagle, dog, po
Description: The following materials and methods were used for quantitative measurements of GLP-1 peptide analogs in plasma (e.g., rat or dog plasma) in the Examples below. These methods used a SCIEX 6600 TripleTOF mass spectrometer coupled with a Shimadzu ultra-high performance liquid chromatography (UHPLC). The specificity of the method was ensured by the retention time, the selected mass for Single-Reaction-Monitoring (SRM) mode, and the selected fragment mass in MS/MS (MS^2) mode. […] The analytes of interest were analyzed from plasma, a complex biological matrix. Although protein precipitation using organic solvent can reduce matrix interference, significant background still persists. The high mass accuracy offered by the TripleTOF mass spectrometers further eliminated background noise, thus enhancing signal: noise (S/N) and allowing improved quantification.
The plasma extraction procedure used the following steps: • Samples, standards, and quality controls were incubated until they reached room temperature. They were then incubated at 60° C. for 2 minutes and cooled down to room temperature, vortexed, and spun down. • 70 μL of samples, standards, or quality controls were transferred into a 1 mL 96-well plate. • In each well, 420 uL of Precipitation Solution was added. The plate was sealed and shook for 10 minutes on a plate shaker at 600 rpm. • The plate was centrifuged at 18G, 2500 RFC, 20° C. for 10 minutes. • The plate was carefully removed, and the upper clear supernatant was extracted with a 200 uL multichannel pipette into a new 96-well protein lobind plate. The supernatant was extracted twice for each well, and the supernatants were combined. • The Plate was placed in TurboVap and the extracted supernatant was dried completely with heated (65° C.) Nitrogen gas at 60 Fahrenheit (Fh). • After the plate was completely dry, the plates were covered and incubated at room temperature for at least 30 minutes until the plate returned back to ambient temperature. • 150 μL of Reconstitution solution was added to each well. The plate was covered with a pierceable place seal and shaken at 600 rpm for 10 minutes. • The samples were submitted to the LC-MS/MS on the same day of Preparation
Quantification of the data obtained using the high resolution SCIEX 6600 instrument was then performed as follows: • For the quantification, extracted ion chromatograms (XIC) using 0.2 Da m/z extraction window centered on the accurate mass of each fragment ion were generated. Accurate mass was calculated from the structure of the compound. […] Concentrations of the target analyte in unknown samples were obtained by regression analysis using linear fits of peak areas vs. analyte concentration, weighted 1/(concentration). • The quality of the assay was controlled by the quality control samples. • Either Experiment 1 or Experiment 2 could be used for the quantification of the GLP-1 peptide analogs in high resolution mode.
MEDI7219 (SEQ ID NO:2) formulations were studied in the following canine study, which was designed to compare different tablet delivery systems and peptides in enterically coated tablet formulation compositions delivered orally. […]
The efficacy of sodium caprate as a permeation enhancer was also evaluated.

[3] = physchem
Description: A known amount of the permeation enhancer, the peptide, or both were combined with increasing amounts of buffer until the permeation enhancer and/or the peptide were completely solubilized.

[4] = tested on: Caco-2 cells; assay: Caco-2 study, Permeability (%) of lipidated peptides (Example 3); type: in vitro ADME, human; conditions: 0.1 mg/mL peptide
Description: The Caco-2 cell line is a continuous cell line of heterogeneous human epithelial colorectal adenocarcinoma cells, which when cultured under specific conditions, become differentiated and polarized such that their phenotype, morphologically and functionally, resembles the enterocytes lining the small intestine. Caco-2 cells express tight junctions, microvilli, and a number of enzymes and transporters that are characteristic of such enterocytes. Caco-2 cells are most commonly used as a tight junction monolayer that provides a physical and biochemical barrier to the passage of drugs and thus serves as an in vitro model of the human small intestinal mucosa to predict the absorption of orally administered drugs. Caco-2 permeability assays were performed by Cyprotex US, LLC (MA, USA) to assess the efficacy of different permeation enhancers. Caco-2 cells were grown on Transwell filters until a transepithelial electric resistance of ˜1000 ohms/cm^2 was achieved. The cells were incubated for three hours with media containing test samples on the apical (top) side of the cell layer, and with blank media on the basolateral (lower) side of the cell layer. Media from the apical and basolateral sides was collected separately after three hours and evaluated for the amount of peptide present on each side. Table 2 gives the permeability coefficient (Papp) of the various test samples, which include the SEQ ID NO:3 GLP-1 peptide in the presence of different excipients.
A following Caco-2 study was performed to evaluate the permeability of different peptides in the presence of various permeation enhancers. Permeability (%) was calculated by dividing the cumulative amount of molecules transported with the original loading amount. Concentrations of peptides in starting sample and apical and basal solutions after incubation for pre-determined periods were analyzed by HPLC. Sodium chenodeoxycholate at 25 mg/mL effected the highest permeability of each tested peptide (Table 4).

bioavailability ([1]; 3 mg/dog, freshly prepared enterically coated no Tris tablet): 5.2%
bioavailability ([1]; 3 mg/dog, freshly prepared enterically coated tablets with Tris): 12.4%
bioavailability ([1]; stressed enterically coated tablet with Tris): 3.8%
bioavailability ([1]; stressed enterically coated tablet without Tris): 9.6%
AUC [2]: 13500 ng·h/mL
half-life [2]: 600 min
solubility ([3]; pH 5, aqueous buffer, thermodynamic from solid): < 10 mg/mL
solubility ([3]; pH 5.5): < 10 mg/mL
solubility ([3]; pH 6, aqueous buffer, thermodynamic from solid): 75 mg/mL (≈ 17.2 mM)
solubility ([3]; pH 7): 150 mg/mL (≈ 34.5 mM)
solubility ([3]; pH 7.5): 180 mg/mL (≈ 41.4 mM)
solubility as a function of pH (in words) ([3]; pH 7.5): increased in the range of pH 7.0 to 9.0
solubility ([3]; pH 8): 200 mg/mL (≈ 45.9 mM)
solubility ([3]; pH 9): > 200 mg/mL
SMILES: CCCCCCCCCCCC(=O)N[C@@H](CCC(=O)NCCOCCOCC(=O)NCCOCCOCC(=O)NCCCC[C@H](NC(=O)[C@H](C)NC(=O)[C@@H](NC(=O)[C@](C)(Cc1ccccc1)NC(=O)[C@H](CCC(=O)O)NC(=O)[C@](C)(CCCCN)NC(=O)[C@H](C)NC(=O)[C@H](C)NC(=O)[C@H](CCC(=O)O)NC(=O)CNC(=O)[C@H](CCC(=O)O)NC(=O)[C@H](CC(C)C)NC(=O)[C@H](CCCCNC(=O)COCCOCCNC(=O)COCCOCCNC(=O)CC[C@H](NC(=O)CCCCCCCCCCC)C(=O)O)NC(=O)[C@H](CO)NC(=O)[C@](C)(CO)NC(=O)[C@@H](NC(=O)[C@H](CC(=O)O)NC(=O)[C@H](CO)NC(=O)[C@@H](NC(=O)[C@](C)(Cc1ccccc1)NC(=O)[C@H](CO)NC(=O)CNC(=O)[C@H](CCC(=O)O)NC(=O)C(C)(C)NC(=O)[C@@H](N)Cc1c[nH]cn1)[C@@H](C)O)C(C)C)[C@@H](C)CC)C(=O)N[C@H](C(=O)N[C@H](C(=O)N[C@@H](CCC(=O)O)C(=O)NCC(=O)NCC(N)=O)C(C)C)C(C)C)C(=O)O [MEDI7219, Free-H-[AIB]-EGS-[αMePhe]-TSDV-[αMeSer]-SK[(PEG2)2-γE-Lauroyl]-LEGEAA-[αMeLys]-E-[αMePhe]-IAK[(PEG2)2-γE-Lauroyl]-VVEGG-amide] (H-H[Aib]EGS[αMeF]TSDV[αMeS]SK([AEEA-AEEA-γGlu-Lauroyl])LEGEAA[αMeK]E[αMeF]IAK([AEEA-AEEA-γGlu-Lauroyl])VVEGG-NH2)

Permeability (%) ([4]; 5.0 mg/mL Chitosan): 0%
Permeability (%) ([4]; 5.0 mg/mL Octyl β-D-glucopyranoside): 0%
Permeability (%) ([4]; 5.0 mg/mL Sodium Chenodeoxycholate): 1.7%
Permeability (%) ([4]; 5.0 mg/mL Tri-Me-Chitosan): 0%
Permeability (%) ([4]; 25 mg/mL Chitosan): 0%
Permeability (%) ([4]; 25 mg/mL Octyl β-D-glucopyranoside): 2.0%
Permeability (%) ([4]; 25 mg/mL Sodium Chenodeoxycholate): 12.6%
Permeability (%) ([4]; 25 mg/mL Tri-Me-Chitosan): 0%
Permeability (%) ([4]; no enhancer): 0%
SMILES: CC[C@H](C)[C@H](NC(=O)C(C)(Cc1ccccc1)NC(=O)[C@H](CCC(=O)O)NC(=O)[C@H](CCCCNC(=O)COCCOCCNC(=O)COCCOCCNC(=O)CC[C@H](NC(=O)CCCCCCCCCCCCCCCCC(=O)O)C(=O)O)NC(=O)[C@H](C)NC(=O)[C@H](C)NC(=O)[C@H](CCC(=O)O)NC(=O)CNC(=O)[C@H](CCC(=O)O)NC(=O)[C@H](CC(C)C)NC(=O)C(C)(Cc1ccccc1)NC(=O)[C@H](CO)NC(=O)C(C)(CO)NC(=O)[C@@H](NC(=O)[C@H](CC(=O)O)NC(=O)[C@H](CO)NC(=O)[C@@H](NC(=O)C(C)(Cc1ccccc1)NC(=O)[C@H](CO)NC(=O)CNC(=O)[C@H](CCC(=O)O)NC(=O)C(C)(C)NC(=O)[C@@H](N)Cc1c[nH]cn1)[C@@H](C)O)C(C)C)C(=O)N[C@@H](C)C(=O)NC(C)(Cc1ccccc1)C(=O)N[C@H](C(=O)N[C@H](C(=O)NC(C)(CCCCN)C(=O)NCC(=O)NCC(N)=O)C(C)C)C(C)C (stereo partly drawn) [SEQ ID NO: 3, Free-H-[AIB]-EGS-[αMePhe]-TSDV-[αMeSer]-S-[αMePhe]-LEGEAAK[(PEG2)2-γE-Stearate]-E-[αMePhe]-IA-[αMePhe]-VV-[αMeLys]-GG-amide]

From patent US11173124B2, “Oral delivery of GLP-1 peptide analogs” (MEDIMMUNE LIMITED, priority 2017, dated 2021)
